Measured values reported in patent US11517019B2, “Microbicidal system” (priority 2020, dated 2022).
“Also recorded” adds a separate entry of the source. Like-named read-outs stand apart in the source and are kept apart here.

Legend:
[1] = Dissolution of CX powder in 140° F. municipal water
[2] = test system: gram-positive and gram-negative bacteria; details: cited from earlier work
Lp1 = type: cell-based, Legionella pneumophila; details: ~9×10^6 CFU/mL
[3] = ambient temperature; third-party reports; cited from earlier work
[4] = 50 mg CX powder in 1 liter 140° F. (60° C.) municipal water

What does the source list for [H]/N=C(\N/C(=N/[H])NCCCCCCNC(=N)NC(=N)Nc1ccc(Cl)cc1)Nc1ccc(Cl)cc1 [CX, N,N″″1,6-Hexanediylbis[N-(4-chlorophenyl) (imidodicarbonimidic diamide)]]?
saturation level of CX approached [1, 4]: ~1 mg/L; time to approach saturation level [1, 4]: ≤ 10 s; portion of the powder dissolved ([1]; 50 mg in 1 liter 140° F. water, up to 20 minutes of exposure): under 2 weight percent; chloroaniline (CA) isomers detectable in the water ([1]; CX in 140° F. water): no isomer of CA was detectable; also recorded: No chloroani line impurities were detectable; time of uptake into bacterial cells ([2]; aqueously dissolved form): ≤ 20 s; persistence of activity ([2]; bound to proteins on skin, mucosa, mouth tissue and teeth): ≥ 48 h; time to kill virtually all gram-positive and gram-negative bacteria ([2]; in vitro): ≤ 30 s; cell count reduction (Lp1; 4.5 g solid CX in 800 mL, first 30 seconds): ~0.3 log; cell count reduction (Lp1; 12 g solid CX in 800 mL, 2-minute reaction period): ~4.8 log; solubility in water [3]: ca. 80 mg/100 mL
